Assay results: patent US20250026752A1, “POSITIVE ALLOSTERIC MODULATORS OF THE MUSCARINIC ACETYLCHOLINE RECEPTOR M4” (Vanderbilt University, priority 2021, published 2025)

Molecular target: T1, human mAChR M4 (Homo sapiens, UniProt P08173)
T1 construct: expressed in transfected cells; host or cells: CHO-K1 (ATCC), stably expressing hM4 and Gqi5
T1 sequence (P08173 1-479): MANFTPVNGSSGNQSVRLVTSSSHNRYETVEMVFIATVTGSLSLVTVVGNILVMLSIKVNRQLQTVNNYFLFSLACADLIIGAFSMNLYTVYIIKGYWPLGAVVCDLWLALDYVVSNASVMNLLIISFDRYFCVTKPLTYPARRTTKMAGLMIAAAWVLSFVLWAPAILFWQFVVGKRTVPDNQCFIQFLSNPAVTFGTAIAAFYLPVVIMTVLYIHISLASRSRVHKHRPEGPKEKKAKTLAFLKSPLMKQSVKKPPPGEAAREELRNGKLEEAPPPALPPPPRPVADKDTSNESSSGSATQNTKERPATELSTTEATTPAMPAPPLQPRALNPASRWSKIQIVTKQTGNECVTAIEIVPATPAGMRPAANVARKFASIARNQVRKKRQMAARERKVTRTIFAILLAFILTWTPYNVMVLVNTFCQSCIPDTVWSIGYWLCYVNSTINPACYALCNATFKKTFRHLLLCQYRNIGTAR
Assay: mAChR M4 cell-based functional assay: calcium flux (Fluo-4, FDSS), positive allosteric modulator activity on the EC20 acetylcholine response, hM4-Gqi5 CHO-K1 cells
Settings: for Emax at 30 µM: CHO-K1, human M4, % ACh maximum at 30 μM; for EC50: human M4, PAM activity on EC20 acetylcholine response, calcium flux, read-out: Human M4 EC50
Procedure, shortened: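 CHO-K1 cells stably expressing human M4 with chimeric Gqi5, loaded with Fluo-4 AM for 50 min at 37° C. Compounds (11-point, 1:3 dilutions) added first, then an acetylcholine EC20 at 144 s; calcium read on FDSS at 1 Hz. EC50 is the half-maximal increase above the EC20 baseline, four-parameter logistic fit.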

SMILES | Emax at 30 µM | EC50
[2H]c1nc(N2CCc3ncc(N4CCOc5ncccc54)cc3C2)c2cc(C)ccc2n1 [Compound 204, 1-[6-(2-deuterio-6-methyl-quinazolin-4-yl)-7,8-dihydro-5H-1,6-naphthyridin-3-yl]-2,3-dihydropyrido[2,3-b][1,4]oxazine] | 93% | 0.08 µM
Cc1nc(N2CCc3ncc(-c4ccccc4C)cc3C2)c2cc(F)ccc2n1 [Compound 294, 6-fluoro-2-methyl-4-(3-(o-tolyl)-7,8-dihydro-1,6-naphthyridin-6(5H)-yl)quinazoline] | 68% | 1.63 µM
Fc1ccc2ncnc(N3CCc4ncc(N5CCOC(c6cccnc6)C5)cc4C3)c2c1 (stereo not shown) [Compound 229, 4-(6-(6-fluoroquinazolin-4-yl)-5,6,7,8-tetrahydro-1,6-naphthyridin-3-yl)-2-(pyridin-3-yl)morpholine] | 86% | 0.51 µM
Cc1nc(N2CCc3ncc(C(F)(F)F)cc3C2)c2ccc(F)cc2n1 [Compound 127, 7-fluoro-2-methyl-4-[3-(trifluoromethyl)-7,8-dihydro-5H-1,6-naphthyridin-6-yl]quinazoline] | 63% | 0.43 µM
CN1CCN(c2cnc3c(c2)CN(c2ncnc4ccc(F)cc24)CC3)CC12COC2 [Compound 283, 8-(6-(6-fluoroquinazolin-4-yl)-5,6,7,8-tetrahydro-1,6-naphthyridin-3-yl)-5-methyl-2-oxa-5,8-diazaspiro[3.5]nonane] | 99% | 0.7 µM
COc1cc2c(N3CCc4ncc(C(F)(F)F)cc4C3)nc(Cl)nc2cc1F [Compound 167, 2-chloro-7-fluoro-6-methoxy-4-[3-(trifluoromethyl)-7,8-dihydro-5H-1,6-naphthyridin-6-yl]quinazoline] | 72% | 0.35 µM
Cc1nc(N2CCc3ncc(-c4ccc(C(F)(F)F)nc4)cc3C2)c2cc(Cl)ccc2n1 [Compound 4, 6-chloro-2-methyl-4-[3-[6-(trifluoromethyl)-3-pyridyl]-7,8-dihydro-5H-1,6-naphthyridin-6-yl]quinazoline] | 57% | 0.86 µM
Cc1nc(N2CCc3ncc(CC(F)(F)F)cc3C2)c2cc(Cl)ccc2n1 [Compound 287, 6-chloro-2-methyl-4-(3-(2,2,2-trifluoroethyl)-7,8-dihydro-1,6-naphthyridin-6(5H)-yl)quinazoline] | 85% | 0.36 µM
Cc1ccc(Oc2cnc3c(c2)CN(c2ncnc4ccc(F)cc24)CC3)c(F)c1 [Compound 144, 6-fluoro-4-[3-(2-fluoro-4-methyl-phenoxy)-7,8-dihydro-5H-1,6-naphthyridin-6-yl]quinazoline] | 74% | 1.89 µM
COc1nc(N2CCc3ncc(C(F)(F)F)cc3C2)c2cc(C)ccc2n1 [Compound 179, 2-methoxy-6-methyl-4-[3-(trifluoromethyl)-7,8-dihydro-5H-1,6-naphthyridin-6-yl]quinazoline] | 98% | 0.34 µM
COc1cc2c(N3CCc4ncc(N5CCCn6nccc65)cc4C3)nc(Cl)nc2cc1F [Compound 102, 2-chloro-4-[3-(6,7-dihydro-5H-pyrazolo[1,5-a]pyrimidin-4-yl)-7,8-dihydro-5H-1,6-naphthyridin-6-yl]-7-fluoro-6-methoxy-quinazoline] | 78% | 0.21 µM
Cc1ccc2nc(C)nc(N3CCc4ncc(-c5cc(F)ccc5C)cc4C3)c2c1 [Compound 317, 4-(3-(5-fluoro-2-methylphenyl)-7,8-dihydro-1,6-naphthyridin-6(5H)-yl)-2,6-dimethylquinazoline] | 91% | 2.8 µM
CN1CCN(c2cnc3c(c2)CN(c2ncnc4cc(F)c(F)cc24)CC3)CC12COC2 [Compound 284, 8-(6-(6,7-difluoroquinazolin-4-yl)-5,6,7,8-tetrahydro-1,6-naphthyridin-3-yl)-5-methyl-2-oxa-5,8-diazaspiro[3.5]nonane] | 104% | 0.5 µM
Cc1nn(C)cc1-c1cnc2c(c1)CN(c1nc(C3CC3)nc3ccc(Cl)cc13)CC2 [Compound 191, 6-chloro-2-cyclopropyl-4-[3-(1,3-dimethylpyrazol-4-yl)-7,8-dihydro-5H-1,6-naphthyridin-6-yl]quinazoline] | 80% | 1.07 µM
Cc1nc(N2CCc3ncc(N4CCOC(c5cccnc5)C4)cc3C2)c2cc(F)ccc2n1 (stereo not shown) [Compound 230, 4-(6-(6-fluoro-2-methylquinazolin-4-yl)-5,6,7,8-tetrahydro-1,6-naphthyridin-3-yl)-2-(pyridin-3-yl)morpholine] | 86% | 0.5 µM
COc1ccc2nc(O)nc(N3CCc4ncc(C(F)(F)F)cc4C3)c2c1 [Compound 221, 6-methoxy-4-(3-(trifluoromethyl)-7,8-dihydro-1,6-naphthyiridin-6(5H)-yl)quinazolin-2-ol] | 44% | 1.49 µM
Cc1ccc(-c2cnc3c(c2)CN(c2ncnc4cc(F)c(F)cc24)CC3)cn1 [Compound 53, 6,7-difluoro-4-[3-(6-methyl-3-pyridyl)-7,8-dihydro-5H-1,6-naphthyridin-6-yl]quinazoline] | 84% | 0.13 µM
CC(C)n1nccc1-c1cnc2c(c1)CN(c1ncnc3ccc(F)cc13)CC2 [Compound 264, 6-fluoro-4-(3-(1-isopropyl-1H-pyrazol-5-yl)-7,8-dihydro-1,6-naphthyridin-6(5H)-yl)quinazoline] | 82% | 0.14 µM
Cc1nc(N2CCc3ncc(-c4ccc(C5CC5)nc4)cc3C2)c2cc(F)ccc2n1 [Compound 25, 4-[3-(6-cyclopropyl-3-pyridyl)-7,8-dihydro-5H-1,6-naphthyridin-6-yl]-6-fluoro-2-methyl-quinazoline] | 96% | 0.31 µM
[2H]c1nc(N2CCc3ncc(-c4cnc(C)s4)cc3C2)c2cc(C)ccc2n1 [Compound 174, 5-[6-(2-deuterio-6-methyl-quinazolin-4-yl)-7,8-dihydro-5H-1,6-naphthyridin-3-yl]-2-methyl-thiazole] | 82% | 0.14 µM
C[C@H]1CN(c2ncnc3ccc(Cl)cc23)Cc2cc(N3CCOCC3)cnc21 [Compound 263, (S)-4-(6-(6-chloroquinazolin-4-yl)-8-methyl-5,6,7,8-tetrahydro-1,6-naphthyridin-3-yl)morpholine] | 88% | 0.16 µM
CC(C)(O)CNc1nc(N2CCc3ncc(C(F)(F)F)cc3C2)c2cc(F)ccc2n1 [Compound 203, 1-[[6-fluoro-4-[3-(trifluoromethyl)-7,8-dihydro-5H-1,6-naphthyridin-6-yl]quinazolin-2-yl]amino]-2-methyl-propan-2-ol] | 90% | 0.41 µM
Cc1ccc(F)c(Oc2cnc3c(c2)CN(c2nc(C)nc4ccc(Cl)cc24)CC3)c1 [Compound 154, 6-chloro-4-[3-(2-fluoro-5-methyl-phenoxy)-7,8-dihydro-5H-1,6-naphthyridin-6-yl]-2-methyl-quinazoline] | 62% | 7.69 µM
c1cnc2nc(N3CCOCC3)nc(N3CCc4ncc(N5CCCn6nccc65)cc4C3)c2c1 [Compound 250, 4-(4-(3-(6,7-dihydropyrazolo[1,5-a]pyrimidin-4(5H)-yl)-7,8-dihydro-1,6-naphthyridin-6(5H)-yl)pyrido[2,3-d]pyrimidin-2-yl)morpholine] | 73% | 0.36 µM
Cc1nc(N2CCc3ncc(N4CCOc5ncccc54)cc3C2)c2cc(Cl)ccc2n1 [Compound 107, 1-[6-(6-chloro-2-methyl-quinazolin-4-yl)-7,8-dihydro-5H-1,6-naphthyridin-3-yl]-2,3-dihydropyrido[2,3-b][1,4]oxazine] | 98% | 0.14 µM
Cc1nc(N2CCc3ncc(Nc4ccnn4C)cc3C2)c2cc(Cl)ccc2n1 [Compound 108, 6-(6-chloro-2-methyl-quinazolin-4-yl)-N-(2-methylpyrazol-3-yl)-7,8-dihydro-5H-1,6-naphthyridin-3-amine] | 102% | 0.17 µM
c1cnc2nc(NC3CC3)nc(N3CCc4ncc(N5CCCn6nccc65)cc4C3)c2c1 [Compound 244, N-cyclopropyl-4-(3-(6,7-dihydropyrazolo[1,5-a]pyrimidin-4(5H)-yl)-7,8-dihydro-1,6-naphthyridin-6(5H)-yl)pyrido[2,3-d]pyrimidin-2-amine] | 70% | 0.24 µM
Cn1nc(C(F)(F)F)cc1-c1cnc2c(c1)CN(c1ncnc3cc(F)c(F)cc13)CC2 [Compound 271, 6,7-difluoro-4-(3-(1-methyl-3-(trifluoromethyl)-1H-pyrazol-5-yl)-7,8-dihydro-1,6-naphthyridin-6(5H)-yl)quinazoline] | 80% | 0.95 µM
Cc1nc(N2CCc3ncc(N4CCOc5ncccc54)cc3C2)c2cc(C(F)(F)F)ccc2n1 [Compound 182, 1-[6-[2-methyl-6-(trifluoromethyl)quinazolin-4-yl]-7,8-dihydro-5H-1,6-naphthyridin-3-yl]-2,3-dihydropyrido[2,3-b][1,4]oxazine] | 81% | 3.3 µM
